Series [1] in a line: Mouse tail-flick test, morphine challenge. The series is classed as in vivo. As for the experimental part:
Microcapsules (177-295 microns in size) so prepared were evaluated by the mouse tail-flick test procedure. Mice (groups of 6) were the test animals. The morphine challenge dose was 10 mg./kg. mouse; test animal response was measured 20 min. after morphine injection. As will be seen, the microcapsules caused more than 50% antagonism 28 days after injection both in the tests in which peanut oil was used as the suspending medium and in the tests where peanut oil plus aluminum monostearate was used as the suspending medium.
*All injections (1 cc/100 g mouse) given through 18 gauge needle; Morphin
challenge dose: 10 mg/kg mouse; Capsule size: 177-295μ; Active content
of capsules initially: 67 wt. %.
Similar studies were run with microcapsules (105 to 177 microns in size) of naltrexone free base (NFB) prepared in the same manner as the naltrexone pamoate microcapsules.
challenge dose: 10 mg/kg mouse; Capsule size: 105-177μ; Active content
Background: Thermal pain tests record how soon the animal reacts.

The nature of series [2]: In vitro release/dissolution by end-over-end tumbling in phosphate buffer at 37° C. The class given is physicochemical.
Series [3] can be described thus: Solubility of cyclazocine in solvents (equilibration, solids content after solvent evaporation). The class given is physicochemical. As for the experimental part:
For example, taking cyclazocine as the solid, injectable drug material, Table I summarizes the solubility data obtained for this drug in a number of solvents.
After equilibration (20-30 min), one ml. of solution was transferred to a tared weighing dish and the solids content determined by solvent evaporation.
In particular, the aromatic solvents have little tendency to dissolve it at room temperature.

≈ marks a conversion by molar mass, not a printed value. Read-outs that look alike come from different tables or passages of the source.

With `O=C1CC[C@@]2(O)[C@H]3Cc4ccc(O)c5c4[C@@]2(CCN3CC2CC2)[C@H]1O5` [NFB], the “% Antagonism” value worked out at 80.0% in series [1] (7 days, 40 mg unencapsulated NFB/kg mouse, peanut oil); 54.1% in series [1] (7 days, 40 mg unencapsulated NFB/kg mouse, peanut oil + 2 wt. % AIMS); 39.7% in series [1] (10 days, 40 mg unencapsulated NFB/kg mouse, peanut oil); 69.5% in series [1] (10 days, 40 mg unencapsulated NFB/kg mouse, peanut oil + 2 wt. % AIMS); 21.8% in series [1] (14 days, 40 mg unencapsulated NFB/kg mouse, peanut oil); 48.0% in series [1] (14 days, 40 mg unencapsulated NFB/kg mouse, peanut oil + 2 wt. % AIMS). Further, the “% Antagonism” value amounted to 8.1% in series [1] (21 days, 40 mg unencapsulated NFB/kg mouse, peanut oil) and 15.2% in series [1] (21 days, 40 mg unencapsulated NFB/kg mouse, peanut oil + 2 wt. % AIMS).

For the molecule `O=C1CC[C@@]2(O)[C@H]3Cc4ccc(O)c5c4[C@@]2(CCN3CC2CC2)[C@H]1O5` [NP], the “% Antagonism” value in series [1] (7 days, 40 mg unencapsulated NP/kg mouse, peanut oil) was 66.1%; in series [1] (7 days, 40 mg unencapsulated NP/kg mouse, peanut oil + 2 wt. % AIMS), 88.3%; in series [1] (14 days, 40 mg unencapsulated NP/kg mouse, peanut oil), 59.1%; in series [1] (14 days, 40 mg unencapsulated NP/kg mouse, peanut oil + 2 wt. % AIMS) it was 52.9%; in series [1] (21 days, 40 mg unencapsulated NP/kg mouse, peanut oil) it was 12.9%; in series [1] (21 days, 40 mg unencapsulated NP/kg mouse, peanut oil + 2 wt. % AIMS), 11.2%. Moreover, the “% Antagonism” value in series [1] (28 days, 40 mg unencapsulated NP/kg mouse, peanut oil) stood at 13.9%; in series [1] (28 days, 40 mg unencapsulated NP/kg mouse, peanut oil + 2 wt. % AIMS), 18.4%.

For the molecule `C[C@H]1[C@H]2Cc3ccc(O)cc3[C@]1(C)CCN2CC1CC1` [cyclazocine, 3-(cyclopropylmethyl)-1,2,3,4,-5,6-hexahydro-6,11-dimethyl-2,6-methano-3-benzazocin-8-ol], the “Complete dissolution time of unencapsulated drug” value is ≤ 15 min in series [2] (buffer pH 7.4) and ≤ 15 min in series [2] (same buffer, pH 7.0). The solubility (as a rule, the concentration that dissolves in the medium under given conditions) came to 4540 µg/mL (≈ 16.7 mM) in series [3] (25 acetone/75 ethanol (v/v), organic solvent or mixture, 25 acetone/75 ethanol (V/V), 25° C., read-out: Solubility); 4700 µg/mL (≈ 17.3 mM) in series [3] (50 acetone/50 ethanol (v/v), organic solvent or mixture, 50 acetone/50 ethanol (V/V), 25° C., read-out: Solubility); 4740 µg/mL (≈ 17.5 mM) in series [3] (75 acetone/25 ethanol (v/v), organic solvent or mixture, 75 acetone/25 ethanol (V/V), 25° C., read-out: Solubility); 5100 µg/mL (≈ 18.8 mM) in series [3] (acetone, organic solvent or mixture, acetone, 25° C., read-out: Solubility); 1400 µg/mL (≈ 5.16 mM) in series [3] (benzene, organic solvent or mixture, benzene, 25° C., read-out: Solubility); 2400 µg/mL (≈ 8.84 mM) in series [3] (benzene, organic solvent or mixture, benzene, 50° C., read-out: Solubility). Also, the solubility is 7600 µg/mL (≈ 28 mM) in series [3] (chloroform, organic solvent or mixture, chloroform, 25° C., read-out: Solubility); “Insoluble” in series [3] (cyclohexane, 80° C.); 1700 µg/mL (≈ 6.26 mM) in series [3] (decahydronaphthalene, organic solvent or mixture, decahydronaphthalene, 25° C., read-out: Solubility); 3400 µg/mL (≈ 12.5 mM) in series [3] (decahydronaphthalene, organic solvent or mixture, decahydronaphthalene, 130° C., read-out: Solubility); 6640 µg/mL (≈ 24.5 mM) in series [3] (ethanol, organic solvent or mixture, ethanol, 25° C., read-out: Solubility); 52000 µg/mL (≈ 192 mM) in series [3] (ethanol, organic solvent or mixture, ethanol, 73° C., read-out: Solubility). In addition, the solubility in series [3] (ethyl acetate, organic solvent or mixture, ethyl acetate, 4° C., read-out: Solubility) worked out at 2600 µg/mL (≈ 9.58 mM); in series [3] (ethyl acetate, organic solvent or mixture, ethyl acetate, 25° C., read-out: Solubility) it was 6300 µg/mL (≈ 23.2 mM); in series [3] (ethyl acetate, organic solvent or mixture, ethyl acetate, 77° C., read-out: Solubility), 45000 µg/mL (≈ 166 mM); in series [3] (isopropanol, organic solvent or mixture, isopropanol, 25° C., read-out: Solubility) it was 26800 µg/mL (≈ 98.7 mM); in series [3] (isopropanol, organic solvent or mixture, isopropanol, 80° C., read-out: Solubility), 26800 µg/mL (≈ 98.7 mM); in series [3] (methanol, organic solvent or mixture, methanol, 25° C., read-out: Solubility), 18400 µg/mL (≈ 67.8 mM). Also, the solubility in series [3] (methanol, organic solvent or mixture, methanol, 63° C., read-out: Solubility) worked out at 33200 µg/mL (≈ 122 mM); in series [3] (methyl ethyl ketone, organic solvent or mixture, methyl ethyl ketone, 4° C., read-out: Solubility), 9100 µg/mL (≈ 33.5 mM); in series [3] (methyl ethyl ketone, organic solvent or mixture, methyl ethyl ketone, 25° C., read-out: Solubility) it was 16000 µg/mL (≈ 59 mM); in series [3] (methyl ethyl ketone, organic solvent or mixture, methyl ethyl ketone, 79° C., read-out: Solubility), 59800 µg/mL (≈ 220 mM); in series [3] (n-butanol, organic solvent or mixture, n-butanol, 4° C., read-out: Solubility), 4500 µg/mL (≈ 16.6 mM); in series [3] (n-butanol, organic solvent or mixture, n-butanol, 25° C., read-out: Solubility), 15000 µg/mL (≈ 55.3 mM). Further, the solubility in series [3] (n-butanol, organic solvent or mixture, n-butanol, 117° C., read-out: Solubility) stood at 215000 µg/mL (≈ 792 mM); in series [3] (toluene, organic solvent or mixture, toluene, 25° C., read-out: Solubility), 1000 µg/mL (≈ 3.68 mM); in series [3] (toluene, organic solvent or mixture, toluene, 35° C., read-out: Solubility), 1500 µg/mL (≈ 5.53 mM); in series [3] (toluene, organic solvent or mixture, toluene, 50° C., read-out: Solubility) it was 4000 µg/mL (≈ 14.7 mM); in series [3] (toluene, organic solvent or mixture, toluene, 100° C., read-out: Solubility), 15000 µg/mL (≈ 55.3 mM); in series [3] (xylene, organic solvent or mixture, xylene, 25° C., read-out: Solubility) it was 1200 µg/mL (≈ 4.42 mM). Besides, the solubility was 1800 µg/mL (≈ 6.63 mM) in series [3] (xylene, organic solvent or mixture, xylene, 50° C., read-out: Solubility) and 17500 µg/mL (≈ 64.5 mM) in series [3] (xylene, organic solvent or mixture, xylene, 90° C., read-out: Solubility). In addition, the “Solubility (in words)” value in series [3] (range of solvents, room temperature) is “relatively low solubility”.

These data come from patent US4622244A, “Process for preparation of microcapsules” (The Washington University, priority 1984, dated 1986).
